Results from patent US9266911B2, “Camptothecin derivative, and preparation method thereof, and pharmaceutical composition and application” (priority 2011, dated 2016).
≈ marks a conversion by molar mass, not a printed value. Where “and” joins values, the source holds several entries; their conditions need not be identical. Equal entries are not always repeated. Where two headings read alike, the source gives them in different places.

What was measured:
[1] = test system: H446 (small cell lung cancer) cells; assay: CellTiter-Glo cell viability assay, H446 cells; format: cell-based, human; settings: for viability at 0.1 µM / viability at 1 µM / viability at 10 µM: Homo sapiens, NCI-H446
Protocol: (§1) Using the CellTiter-Glo kit provided by Promega Corporation, cell viability assay was performed on cancer cell lines to evaluate the ability of a compound to kill cancer cells in the in-vitro experiments. The kit measures the ATP levels by an enzymatic Luciferase assay. Normal viable cells will produce a certain level of ATP in metabolism. The enzymic reaction between the ATP product and the luciferase will emit a certain level of luminescent signal, which is captured by a luminometer and recorded as a certain luminescent read. […] When using this method to evaluate the anti-cancer activity of a compound, a certain concentration of an anti-cancer drug is added to the same amount of viable cancer cells, and the luminescent signal reading is acquired at a certain time point via CellTiter-Glo kits. […] Detailed procedure is as follows: a certain amount of small cell lung cancer cells (ATCC catalog No. H446), breast cancer cells (ATCC catalog No. MDAMB231) or colon cancer cells (ATCC catalog No. HCT116) are seeded in 96 wells with the same cell-culture medium, then respectively treated with WQ1001 and other anti-cancer drugs for a time course of 24, 48, and 72 hours. At the respective time points, the cancer cells are mixed with CellTiter-Glo reagents for 1 hour and the corresponding luminescent signals are recorded. Since the luminescent signal reading is proportional to the amount of viable cancer cells, the luminescent signal reading can be translated into the amount of viable cancer cells correspondingly. The cell livability rate is obtained by dividing the amount of viable cancer cells after treated with a certain concentration of anti-cancer drug by the amount of viable cancer cells of the Control Group which are not treated with the drug.

[2] = test system: MDAMB231 (breast cancer) cells; assay: CellTiter-Glo cell viability assay, MDAMB231 cells; format: cell-based; settings: 48 hours; for viability at 0.1 µM / viability at 1 µM / viability at 10 µM: Homo sapiens, read-out: MDAMB231 cell viability after drug treatment; for viability at 0.1 µM: MDA-MB-231, 0.1 μM; for viability at 1 µM: MDA-MB-231, 1.0 μM; for viability at 10 µM: MDA-MB-231, 10 μM
Protocol: as §1

[3] = test system: HCT116 (colon cancer) cells; assay: CellTiter-Glo cell viability assay, HCT116 cells; format: cell-based; settings: for viability at 0.1 µM / viability at 1 µM / viability at 10 µM: Homo sapiens, read-out: HCT116 cell viability after drug treatment for 48 hours
Protocol: as §1

Water-solubility = format: physicochemical; settings: for solubility: water
Protocol: (§2) Table 15 lists comparison of properties between the representative compounds of the present invention and several existing CPT derivatives. In the test, the lactone ring stability was characterized by lactone ring conservation rate measured by HPLC (liquid chromatogram) after placing the test compounds in buffer solution of pH 7.4. The anticancer activity was characterized by viability of H446 cancer cells at 10 μM drug concentration. From the Table, one can learn the differences in water-solubility, lactone ring stability and toxicology of the compounds of the present invention.

[4] = Lactone ring stability (lactone ring conservation rate by HPLC in pH 7.4 buffer); format: physicochemical; settings: lactone ring conservation rate by HPLC after placing in buffer solution of pH 7.4
Protocol: as §2

human serum album = human serum album (Homo sapiens, UniProt P02768); settings: physiological condition; cited from earlier work
[5] = test system: human colon cancer HT-29 nude mouse xenograft; assay: In vivo antitumor efficacy, HT-29 nude mouse xenograft model; settings: 35 mg/kg
[6] = test system: human breast cancer MCF-7 nude mouse xenograft; assay: In vivo antitumor efficacy, MCF-7 nude mouse xenograft model; settings: 35 mg/kg
[7] = test system: human small cell lung cancer NCI-H446 nude mouse xenograft; assay: In vivo antitumor efficacy, NCI-H446 nude mouse xenograft model
Protocol: The drugs were administered by intravenous injection.
WQ1001 was administered by I.V. injection once every other day for 3 consecutive times, followed by 7 days' rest without drug administration, then one more circle was performed, for a total of 6 times of administration.

[8] = test system: human multiple myeloma NCI-H929 nude mouse xenograft; assay: In vivo antitumor efficacy, NCI-H929 nude mouse xenograft model; settings: 10 mg/kg (Table 23), intraperitoneal
Protocol: The human multiple myeloma NCI-H929 cells were grafted to nude mice. […] Two days after tumor cell implantation, the drugs were administered by intraperitoneal injection once every 4 days for a total of 3 injections (on Day 2, 6, 10 after cancer cell implantation). The body weight was measured every 2 days.

[9] = H446 cells, 0.1 μM, 48 hours, read-out: H446 cell viability after drug treatment for 48 hours
[10] = H446 cells, 1.0 μM, 48 hours, read-out: H446 cell viability after drug treatment for 48 hours
[11] = H446 cells, 10 μM, 48 hours, read-out: H446 cell viability after drug treatment for 48 hours
[12] = viability of H446 cancer cells at 10 μM drug concentration (Table 15), read-out: Cancer cell viability
[13] = viability of H446 cancer cells at 10 μM drug concentration (Table 15)
[14] = topotecan 10 mg/kg i.v., D0, 4, 7, 11, 14, 17, D22

Sequence of human serum album (P02768 25-609): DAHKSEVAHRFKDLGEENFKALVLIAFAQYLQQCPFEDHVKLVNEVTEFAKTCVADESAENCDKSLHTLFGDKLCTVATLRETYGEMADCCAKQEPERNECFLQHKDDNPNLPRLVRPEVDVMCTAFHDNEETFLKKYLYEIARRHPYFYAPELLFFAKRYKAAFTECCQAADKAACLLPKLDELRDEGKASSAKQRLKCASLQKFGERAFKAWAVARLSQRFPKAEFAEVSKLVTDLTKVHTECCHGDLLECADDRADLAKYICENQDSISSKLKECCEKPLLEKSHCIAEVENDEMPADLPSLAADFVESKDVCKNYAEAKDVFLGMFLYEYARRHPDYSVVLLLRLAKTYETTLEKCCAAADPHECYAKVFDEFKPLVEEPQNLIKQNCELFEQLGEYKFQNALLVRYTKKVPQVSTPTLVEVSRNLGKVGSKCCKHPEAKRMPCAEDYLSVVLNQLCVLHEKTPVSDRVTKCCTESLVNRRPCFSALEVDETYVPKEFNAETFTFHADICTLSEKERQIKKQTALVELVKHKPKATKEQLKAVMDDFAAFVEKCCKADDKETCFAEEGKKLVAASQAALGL

With CC[C@@]1(O)C(=O)OCc2c1cc1n(c2=O)Cc2cc3cc(O)ccc3nc2-1 [10-hydroxyl CPT, 10-Hydroxy-CPT (SN22)] the viability at 0.1 µM [1, 9] was 72%, the viability at 1 µM [1, 10] was 30% and the viability at 10 µM [1, 11] was 24%. It also gave a viability at 0.1 µM [2] of 53%, a viability at 1 µM [2] of 40% and a viability at 10 µM [2] of 18%. It also gave a viability at 0.1 µM ([3]; HCT-116, 0.1 μM, 48 hours) of 15%, a viability at 1 µM ([3]; HCT-116, 1.0 μM, 48 hours) of 1% and a viability at 10 µM ([3]; HCT-116, 10 μM, 48 hours) of 9%.
CC[C@@]1(O)C(=O)OCc2c1cc1n(c2=O)Cc2cc3ccccc3nc2-1 [CPT, Camptothecin] showed a viability at 0.1 µM [1, 9] of 65%, a viability at 1 µM [1, 10] of 51% and a viability at 10 µM [1, 11] of 24%. For the same compound, the viability at 10 µM [1, 12] was less than 30%, the viability at 0.1 µM [2] was 13% and the viability at 1 µM [2] was 5%. The viability at 10 µM [2] was 3%, the “HCT116 cell viability after drug treatment for 48 hours” value (“HCT116 cell viability” below) ([3]; 1.0 μM) was 82% and the viability at 0.1 µM ([3]; HCT-116, 48 h, 0.1 μM) was 107%. It also gave a viability at 1 µM ([3]; HCT-116, 48 h, 1.0 μM) of 76%, a solubility (Water-solubility) of less than 100 µg/mL and a Lactone ring stability [4] of less than 50%.
With CC[C@@]1(OP(=O)(O)O)C(=O)OCc2c1cc1n(c2=O)Cc2cc3ccccc3nc2-1 [CPT-20(S)-phosphate] the Cancer cell viability [1, 13] was greater than 85%, the Water-solubility (Water-solubility) was greater than 10000 µg/mL and the Lactone ring stability [4] was greater than 90%.
Work on CCc1c2c(nc3ccc(O)cc13)-c1cc3c(c(=O)n1C2)COC(=O)[C@]3(O)CC [SN38] yielded a viability at 0.1 µM [1, 9] of 79%, a viability at 1 µM [1, 10] of 60% and a viability at 10 µM [1, 11] of 28%. The viability at 0.1 µM [2] was 48%, the viability at 1 µM [2] was 33% and the viability at 10 µM [2] was 20%. It also gave a viability at 0.1 µM ([3]; HCT-116, 48 h, 0.1 μM) of 5%, a viability at 1 µM ([3]; HCT-116, 48 h, 1.0 μM) of 2% and a viability at 10 µM ([3]; HCT-116, 48 h, 10 μM) of 6%.
In the case of CCC(O)(C(=O)O)c1cc2n(c(=O)c1CO)Cc1cc3ccccc3nc1-2 (stereo not drawn) [carboxylate derivative], the “preferential binding to human serum album, relative to CPT” value (human serum album) is given as 150 fold.
For COc1cc([C@@H]2c3cc4c(cc3[C@@H](O[C@@H]3O[C@@H]5CO[C@@H](C)O[C@H]5[C@H](O)[C@H]3O)[C@H]3COC(=O)[C@H]23)OCO4)cc(OC)c1O [etoposide], the viability at 0.1 µM [1, 9] was 95%, the viability at 1 µM [1, 10] was 73% and the viability at 10 µM [1, 11] was 47%. It also gave a viability at 0.1 µM ([3]; HCT-116, 48 h, 0.1 μM) of 102%, a viability at 1 µM ([3]; HCT-116, 48 h, 1.0 μM) of 89% and a viability at 10 µM ([3]; HCT-116, 48 h, 10 μM) of 29%.
CCc1c2c(nc3ccc(OC(=O)N4CCC(N5CCCCC5)CC4)cc13)-c1cc3c(c(=O)n1C2)COC(=O)[C@]3(O)CC [irinotecan, Irinotecan] gave a viability at 10 µM [1, 12] greater than 30%, a solubility (Water-solubility) of 1000 µg/mL (≈ 1700 µM) and a Lactone ring stability [4] of less than 50%. The RTV22 ([5]; D0, 3, 7, 10, 14, 17) was 4.9 ± 1.3, the “Animal body-weight (g_) End” value ([5]; D0, 3, 7, 10, 14, 17, end) was 18.7 ± 1.7 g and the RTV22 ([6]; D0, 3, 7, 10, 14, 17) was 1.9 ± 0.4. For the same compound, the “Animal body-weight (g_) End” value ([6]; D0, 3, 7, 10, 14, 17, end) was 20.6 ± 1.4 g and the “Animal body-weight (g_) Start” value ([6]; D0, 3, 7, 10, 14, 17, start) was 19.0 ± 0.8 g.
For Topotecan, the “H446 cell viability after drug treatment for 48 hours” value (from here on “H446 cell viability”) ([1]; H446 cells, 0.1 μM, 48 hours) was 73%, the “H446 cell viability” value ([1]; H446 cells, 1.0 μM, 48 hours) was 50% and the “H446 cell viability” value ([1]; H446 cells, 10 μM, 48 hours) was 25% and 23%. The Cancer cell viability [1, 13] was greater than 30%, the “MDAMB231 cell viability after drug treatment” value (“MDAMB231 cell viability” below) ([2]; 0.1 μM) was 68% and the “MDAMB231 cell viability” value ([2]; 1.0 μM) was 50%. For the same compound, the “MDAMB231 cell viability” value ([2]; 10 μM) was 23%, the “HCT116 cell viability” value ([3]; 0.1 μM) was 26% and the “HCT116 cell viability” value ([3]; 1.0 μM) was 2%. For the same compound, the “HCT116 cell viability” value ([3]; 10 μM) was 6%, the Water-solubility (Water-solubility) was 1000 µg/mL and the Lactone ring stability [4] was less than 50%. The “MTD (Maximum Toxicity Dosage)” value ([7]; NCI-H446 nude mice, i.v., 6 administrations) was 10 mg/kg, the animal death ([7]; WQ1001 40 mg/kg Group, topotecan 10 mg/kg Group, to D22) was “no animal death appeared” and the “tumor growth” value ([7]; WQ1001 10, 20 and 40 mg/kg, topotecan 10 mg/kg, 6 administrations i.v.) was “significantly inhibited tumor growth”. For the same compound, the “body weight change at the end of test” value ([7]; end of test (D22), WQ1001 40 mg/kg Group, topotecan 10 mg/kg Group) was “decreased significantly”, the RTV22 [7, 14] was 10.7 ± 4.8 and the “T22/C22 (%)” value [7, 14] was 49.3%. For the same compound, the “Animal body-weight (g_) End” value ([7]; topotecan 10 mg/kg i.v., D0, 4, 7, 11, 14, 17, end (D22)) was 16.4 ± 1.5 g, the “Animal body-weight (g_) Start” value ([7]; topotecan 10 mg/kg i.v., D0, 4, 7, 11, 14, 17, start) was 17.6 ± 1.2 g and the RTV11 ([8]; D2, 6, 10) was 25.3 ± 14.8. For the same compound, the “T11/C11 (%)” value ([8]; D2, 6, 10) was 62.7%, the “Animal body-weight (g_) End” value ([8]; D2, 6, 10, end (Day 11)) was 19.2 ± 0.9 g and the “Animal body-weight (g_) Start” value ([8]; D2, 6, 10, start) was 21.0 ± 1.6 g.
